{"source": "patent US20100234238A1", "about": "“METHOD FOR PROFILING KINASE INHIBITORS” (Janssen Pharmaceutica N V, priority 2006, published 2010)", "system": "tyrosine kinase activity in lysates prepared from cell lines", "experiment": "PAMCHIP96 tyrosine peptide array profiling of lysates of 27 cell lines in absence or presence of MTKI", "format": "biochemical", "conditions": "5 μM", "description": "PAMGENE technology using the tyrosine peptide PAMCHIP96 allows the kinetic detection of the phosphorylation of 144 tyrosine peptides spotted onto a 3-dimensional porous well of a 96-well plate (www.pamgene.com). This technology can be used to measure the activity of purified kinases and the effects of kinase inhibitors thereon. Phosphotyrosine peptides are detected using a mix of fluorescently labeled anti-phosphotyrosine antibodies. Phosphorylation of peptides can be followed in real time due to the possibility of removing the reaction mix for a few seconds during the assay by a pumping mechanism to allow CCD camera detection of phosphopeptides bound to the fluorescent antibody. These consecutive datapoints (quantified spot images) generate a kinetic curve for each individual peptide, and allow for the calculation of initial velocities and endpoints associated with each individual peptide.\nCells cultured in appropriate medium in T175 flasks, treated with compound if necessary, are harvested at 70-90% confluency.\nMedia is removed, cells are washed with 10 ml ice cold PBS containing 0.1 mM NaVO4 and lysed in 1 ml of M-PER buffer (PIERCE) containing phosphatase and protease inhibitors (HALT, PIERCE). Cells are collected by scraping, and centrifuged for 10 minutes at 12 000×g. Supernatant lysates are filtered through a 0.2 micrometer filter (Anotop 0.2 μm anopore filter; Whatmann). Lysates are flash frozen in liquid nitrogen and stored at −80C.\nJust prior to the PAMCHIP experiment, total protein content is quantitated in the lysates and lysates are diluted to 1 mg/ml in a total volume of 200 μl, with M-PER phosphatase and protease inhibitors (HALT, PIERCE). 10 μg of total lysate (corresponding to 10 μl) will be used per well on the PAMCHIP96.\nTo all 200 μl lysates 10 units of benzonase (Novagen) is added and lysates are further incubated for 30 min on ice and next centrifuged for 10 minutes at 12 000×g. The supernatant is then 1:1 diluted with compound or DMSO diluted to the appropriate concentration in water, and lysates are further incubated exactly 60 min on ice. Meanwhile, a PAMCHIP96 tyrosine peptide chip (PAMGENE) is blocked with 2% BSA (filtered through a 0.2 μm anopore filter; Whatmann) using the standard setting of a PAMSTATION96 (PAMGENE).\nThe composition of the kinase buffer is as follows: 1×ABL buffer (NEB), 0.5 mg/ml BSA (from 10 mg/ml NEB stock), 100 μM ATP (dissolved and diluted in 1×ABL buffer), 5 μg/ml PY20-FITC (ExAlpha Biologicals, azide-free preparation). A twofold concentrated kinase buffer is prepared chilled on ice, DMSO or compound is added as appropriate, and the solution is added 1:1 to the (compound treated) ice cold lysates, and immediately applied to a tyrosine peptide PAMCHIP96. The assay is run on a PAMSTATION96 according to standard procedures: after loading of the plate, solution is pumped once onto the wells, a first exposure is read (150 mSec) and then a kinetic reading program (reading every 5 min for 150 mSec) is run for 60 min. Lysates are run in 6 technical replicates for each condition; replicates are always applied horizontally next to each other to avoid vertical strip effects of the chip.\nThe data (spot images) are further quantified and linked to the peptide identities using EVOLVE PAMGRID software (PAMGENE). The quantified data are then fit to a curve using CurveFitHT software (PAMGENE) using the Vinip2 curve fitting algorithm, applied on the first 30 min of the assay; the initial velocity is derived at the first kinetic time point read. All subsequent data analyses were done on initial velocities (Vini) using the software packages Omniviz and R (Ihaka, R. and Gentlemen, R. (1996) R: a language for data analysis and graphics. J. Comput. Graph. Stat., 5, 299-314).\nAfter replacing the Vini's lower than 0.1 by 0.1, all Vini's were log 2-transformed to approach normality."}
{"smiles": "COc1cc2ncnc3c2cc1OCCCCCN(C)Cc1ccc(Br)cc1N3", "note": "[MTKI, 4,6-ethanediylidenepyrimido[4,5-b][6,1,12]benzoxadiazacyclopentadecine, 17-bromo-8,9,10,11,12,13,14,19-octahydro-20-methoxy-13-methyl-]", "values": [{"measurement": "ratio of initial velocity of peptide phosphorylation", "setting": "A431 lysate, CDK7_157_169_S164", "value": 0.53}, {"measurement": "ratio of initial velocity of peptide phosphorylation", "setting": "A431 lysate, CREB1_122_134_Y134/S133", "value": 0.63}, {"measurement": "ratio of initial velocity of peptide phosphorylation", "setting": "A431 lysate, DDR2_733_745_Y740", "value": 0.56}, {"measurement": "ratio of initial velocity of peptide phosphorylation", "setting": "A431 lysate, MK10_216_228_T221/Y223", "value": 0.46}, {"measurement": "ratio of initial velocity of peptide phosphorylation", "setting": "A431 lysate, NCF1_313_325_S315/S320", "value": 0.57}, {"measurement": "ratio of initial velocity of peptide phosphorylation", "setting": "A431 lysate, NPT2_501_513_T508", "value": 0.53}, {"measurement": "ratio of initial velocity of peptide phosphorylation", "setting": "A431 lysate, PECA1_706_718_Y713", "value": 0.72}, {"measurement": "ratio of initial velocity of peptide phosphorylation", "setting": "A431 lysate, PGFRB_768_780_Y771/Y775/Y778", "value": 0.97}, {"measurement": "ratio of initial velocity of peptide phosphorylation", "setting": "A431 lysate, PLCG1_764_776_Y771", "value": 0.82}, {"measurement": "ratio of initial velocity of peptide phosphorylation", "setting": "A431 lysate, PRRX2_202_214_Y214", "value": 0.75}, {"measurement": "ratio of initial velocity of peptide phosphorylation", "setting": "A431 lysate, RASA1_453_465_Y460", "value": 0.62}, {"measurement": "ratio of initial velocity of peptide phosphorylation", "setting": "A431 lysate, STAT2_683_695_Y690", "value": 0.57}, {"measurement": "ratio of initial velocity of peptide phosphorylation", "setting": "A431 lysate, SYN1_2_14_S9", "value": 0.58}, {"measurement": "ratio of initial velocity of peptide phosphorylation", "setting": "A431 lysate, TYRO3_679_691_Y686", "value": 0.52}, {"measurement": "ratio of initial velocity of peptide phosphorylation", "setting": "H322 lysate, CDK7_157_169_S164", "value": 0.88}, {"measurement": "ratio of initial velocity of peptide phosphorylation", "setting": "H322 lysate, CREB1_122_134_Y134/S133", "value": 0.94}, {"measurement": "ratio of initial velocity of peptide phosphorylation", "setting": "H322 lysate, DDR2_733_745_Y740", "value": 0.85}, {"measurement": "ratio of initial velocity of peptide phosphorylation", "setting": "H322 lysate, ENOG_37_49_Y43", "value": 0.76}, {"measurement": "ratio of initial velocity of peptide phosphorylation", "setting": "H322 lysate, MK10_216_228_T221/Y223", "value": 0.76}, {"measurement": "ratio of initial velocity of peptide phosphorylation", "setting": "H322 lysate, NCF1_313_325_S315/S320", "value": 0.88}, {"measurement": "ratio of initial velocity of peptide phosphorylation", "setting": "H322 lysate, NPT2_501_513_T508", "value": 0.88}, {"measurement": "ratio of initial velocity of peptide phosphorylation", "setting": "H322 lysate, PECA1_706_718_Y713", "value": 0.73}, {"measurement": "ratio of initial velocity of peptide phosphorylation", "setting": "H322 lysate, PGFRB_768_780_Y771/Y775/Y778", "value": 0.92}, {"measurement": "ratio of initial velocity of peptide phosphorylation", "setting": "H322 lysate, PLCG1_764_776_Y771", "value": 0.79}, {"measurement": "ratio of initial velocity of peptide phosphorylation", "setting": "H322 lysate, PRRX2_202_214_Y214", "value": 0.85}, {"measurement": "ratio of initial velocity of peptide phosphorylation", "setting": "H322 lysate, RASA1_453_465_Y460", "value": 0.83}, {"measurement": "ratio of initial velocity of peptide phosphorylation", "setting": "H322 lysate, STAT2_683_695_Y690", "value": 0.89}, {"measurement": "ratio of initial velocity of peptide phosphorylation", "setting": "H322 lysate, SYN1_2_14_S9", "value": 0.91}, {"measurement": "ratio of initial velocity of peptide phosphorylation", "setting": "H322 lysate, TYRO3_679_691_Y686", "value": 0.96}, {"measurement": "ratio of initial velocity of peptide phosphorylation", "setting": "H2122 lysate, CDK7_157_169_S164", "value": 0.90}, {"measurement": "ratio of initial velocity of peptide phosphorylation", "setting": "H2122 lysate, CREB1_122_134_Y134/S133", "value": 0.85}, {"measurement": "ratio of initial velocity of peptide phosphorylation", "setting": "H2122 lysate, DDR2_733_745_Y740", "value": 0.81}, {"measurement": "ratio of initial velocity of peptide phosphorylation", "setting": "H2122 lysate, ENOG_37_49_Y43", "value": 0.71}, {"measurement": "ratio of initial velocity of peptide phosphorylation", "setting": "H2122 lysate, MK10_216_228_T221/Y223", "value": 0.79}, {"measurement": "ratio of initial velocity of peptide phosphorylation", "setting": "H2122 lysate, NCF1_313_325_S315/S320", "value": 0.94}, {"measurement": "ratio of initial velocity of peptide phosphorylation", "setting": "H2122 lysate, NPT2_501_513_T508", "value": 0.90}, {"measurement": "ratio of initial velocity of peptide phosphorylation", "setting": "H2122 lysate, PECA1_706_718_Y713", "value": 0.67}, {"measurement": "ratio of initial velocity of peptide phosphorylation", "setting": "H2122 lysate, PLCG1_764_776_Y771", "value": 0.76}, {"measurement": "ratio of initial velocity of peptide phosphorylation", "setting": "H2122 lysate, PRRX2_202_214_Y214", "value": 0.84}, {"measurement": "ratio of initial velocity of peptide phosphorylation", "setting": "H2122 lysate, RASA1_453_465_Y460", "value": 0.78}, {"measurement": "ratio of initial velocity of peptide phosphorylation", "setting": "H2122 lysate, STAT2_683_695_Y690", "value": 0.90}, {"measurement": "ratio of initial velocity of peptide phosphorylation", "setting": "H2122 lysate, SYN1_2_14_S9", "value": 0.91}, {"measurement": "ratio of initial velocity of peptide phosphorylation", "setting": "H2122 lysate, TYRO3_679_691_Y686", "value": 0.95}, {"measurement": "ratio of initial velocity of peptide phosphorylation", "setting": "H3255 lysate, CDK7_157_169_S164", "value": 0.55}, {"measurement": "ratio of initial velocity of peptide phosphorylation", "setting": "H3255 lysate, CREB1_122_134_Y134/S133", "value": 0.73}, {"measurement": "ratio of initial velocity of peptide phosphorylation", "setting": "H3255 lysate, DDR2_733_745_Y740", "value": 0.44}, {"measurement": "ratio of initial velocity of peptide phosphorylation", "setting": "H3255 lysate, ENOG_37_49_Y43", "value": 0.76}, {"measurement": "ratio of initial velocity of peptide phosphorylation", "setting": "H3255 lysate, MK10_216_228_T221/Y223", "value": 0.47}, {"measurement": "ratio of initial velocity of peptide phosphorylation", "setting": "H3255 lysate, NCF1_313_325_S315/S320", "value": 0.59}, {"measurement": "ratio of initial velocity of peptide phosphorylation", "setting": "H3255 lysate, NPT2_501_513_T508", "value": 0.68}]}
